Results as given in PubChem BioAssay (NCI).
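In this assay, cells in 96-well plates receive the compound at five concentrations for 48 hours. Endpoints are linearly interpolated between the surrounding concentrations. Abbreviation: GI50, concentration required for 50% inhibition of growth. TGI: total growth inhibition.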

Experiments:
Assay in all cases: DTP human tumour cell line panel, 48 h
HL-60(TB) leukemia = tested on: HL-60(TB) leukemia
RXF 393 renal = tested on: RXF 393 renal
HT29 colon = tested on: HT29 colon
NCI-H460 lung = tested on: NCI-H460 lung
NCI-H226 lung = tested on: NCI-H226 lung
CAKI-1 renal = tested on: CAKI-1 renal
COLO 205 colon = tested on: COLO 205 colon
OVCAR-5 ovarian = tested on: OVCAR-5 ovarian
SF-295 CNS = tested on: SF-295 CNS
SF-539 CNS = tested on: SF-539 CNS
BT-549 breast = tested on: BT-549 breast
HCT-116 colon = tested on: HCT-116 colon
NCI-H23 lung = tested on: NCI-H23 lung
ACHN renal = tested on: ACHN renal
CCRF-CEM leukemia = tested on: CCRF-CEM leukemia
SNB-75 CNS = tested on: SNB-75 CNS
U251 CNS = tested on: U251 CNS
MCF7 breast = tested on: MCF7 breast
SK-MEL-2 melanoma = tested on: SK-MEL-2 melanoma
HOP-62 NSCLC = tested on: HOP-62 NSCLC
LOX IMVI melanoma = tested on: LOX IMVI melanoma
IGROV1 ovarian = tested on: IGROV1 ovarian
HS 578T breast = tested on: HS 578T breast
T-47D breast = tested on: T-47D breast
SN12C renal = tested on: SN12C renal
A549 NSCLC = tested on: A549 NSCLC
SK-OV-3 ovarian = tested on: SK-OV-3 ovarian
SW-620 colon = tested on: SW-620 colon

Compound `O=C1Nc2ccccc2/C1=C/C(=N/c1nnc(-c2ccccc2)s1)c1ccccc1` has a GI50 (HL-60(TB) leukemia) of 1.82 µM, a TGI (HL-60(TB) leukemia) of 5.33 µM and a GI50 (RXF 393 renal) of 1.51 µM. For the same compound, the TGI (RXF 393 renal) was 3.1 µM, the GI50 (HT29 colon) was 2.1 µM and the TGI (HT29 colon) was 5.37 µM. The GI50 (NCI-H460 lung) was 7.04 µM, the TGI (NCI-H460 lung) was 21.9 µM and the GI50 (NCI-H226 lung) was 2.5 µM. The TGI (NCI-H226 lung) was 8.28 µM, the GI50 (CAKI-1 renal) was 2.58 µM and the TGI (CAKI-1 renal) was 10.3 µM. It also gave a GI50 (COLO 205 colon) of 1.68 µM, a TGI (COLO 205 colon) of 3.22 µM and a GI50 (OVCAR-5 ovarian) of 2.09 µM. It also gave a TGI (OVCAR-5 ovarian) of 6.63 µM, a GI50 (SF-295 CNS) of 17.1 µM and a TGI (SF-295 CNS) of 32.7 µM. It also gave a GI50 (SF-539 CNS) of 1.99 µM, a TGI (SF-539 CNS) of 4.64 µM and a GI50 (BT-549 breast) of 1.91 µM. For the same compound, the TGI (BT-549 breast) was 3.96 µM, the GI50 (HCT-116 colon) was 1.34 µM and the TGI (HCT-116 colon) was 2.92 µM. For the same compound, the GI50 (NCI-H23 lung) was 2.88 µM, the TGI (NCI-H23 lung) was 11 µM and the GI50 (ACHN renal) was 1.56 µM. For the same compound, the TGI (ACHN renal) was 3 µM, the GI50 (CCRF-CEM leukemia) was 1.47 µM and the TGI (CCRF-CEM leukemia) was 4.72 µM. For the same compound, the GI50 (SNB-75 CNS) was 3.7 µM, the TGI (SNB-75 CNS) was 16.9 µM and the GI50 (U251 CNS) was 4.91 µM. For the same compound, the TGI (U251 CNS) was 17.7 µM, the GI50 (MCF7 breast) was 2.28 µM and the TGI (MCF7 breast) was 11.3 µM. It also gave a GI50 (SK-MEL-2 melanoma) of 2.55 µM, a TGI (SK-MEL-2 melanoma) of 7.07 µM and a GI50 (HOP-62 NSCLC) of 6.05 µM. The TGI (HOP-62 NSCLC) was 18 µM, the GI50 (LOX IMVI melanoma) was 1.61 µM and the TGI (LOX IMVI melanoma) was 3.21 µM. It also gave a GI50 (IGROV1 ovarian) of 2.13 µM, a TGI (IGROV1 ovarian) of 5.94 µM and a GI50 (HS 578T breast) of 2.71 µM. It also gave a TGI (HS 578T breast) of 11.8 µM, a GI50 (T-47D breast) of 2.45 µM and a TGI (T-47D breast) of 10.1 µM. For the same compound, the GI50 (SN12C renal) was 2.07 µM, the TGI (SN12C renal) was 5.69 µM and the GI50 (A549 NSCLC) was 8.62 µM. The TGI (A549 NSCLC) was 23.6 µM, the GI50 (SK-OV-3 ovarian) was 6.62 µM and the TGI (SK-OV-3 ovarian) was 19.1 µM. The GI50 (SW-620 colon) was 1.2 µM and the TGI (SW-620 colon) was 2.74 µM.
